In US20260325533A1, “CDK INHIBITOR COMPOUNDS” (ALEKSIA THERAPEUTICS, INC., priority 2023, published 2026) one finds IC50 data, which are given here for 16 compounds.

pIC50: −log10 of the molar value. Like-named read-outs stand apart in the source and are kept apart here.

What all share (type): biochemical
Assay [1] addresses CDK6/CCND1 (Homo sapiens, UniProt Q00534). Nature of the assay: CDK6 homogeneous time-resolved fluorescence (HTRF) kinase assay. To be noted: CDK6/CCND, 1 mM ATP. The method in brief: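 Assay conditions: HEPES buffer containing 10 mM MgCl2, 1 mM EGTA, 2 mM DTT, 0.01% Tween 20; 1 nM CDK6/CCND1, 50 nM peptide substrate, 1 mM ATP. Detection after 60 min reaction used 2 nM europium antibody with 340 nm excitation. Potency fitted from half-log series, 11 points.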

In assay [2] the target is CDK1/CCNB1 (Homo sapiens, UniProt P06493). Nature of the assay: CDK1 homogeneous time-resolved fluorescence (HTRF) kinase assay. To be noted: >250 nM; CDK1/CCNB; read-out: CDK1/CCNB IC50 >250 nM. The method in brief: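 CDK1/CCNB1 0.5 nM + cpd, 20 min 23 °C; add 1 mM ATP, 50 nM ULight-4E-BP1 peptide, 60 min 23 °C; stop 10 mM EDTA; 2 nM Eu-Ab, 60 min; HTRF 665 nm. 11-pt half-log, top 10 μM typical; IC50.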

Assay [3] concerns the target CDK4/CCND3 (Homo sapiens, UniProt P11802). In words: CDK4 homogeneous time-resolved fluorescence (HTRF) kinase assay. The following applies: CDK4/CCND. The method, boiled down:
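IC50s derive from Lance 665 nm or 665/615 nm signals in 11-point, half-log dose series (top 10 μM, 1% DMSO). The enzyme, 1.5 nM CDK4/CCND3, phosphorylates 50 nM ULight-4E-BP1 peptide with 1 mM ATP over 60 min at 23 °C.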

Assay [4] addresses CDK2/CCNE1 (Homo sapiens, UniProt P24941). In words: CDK2 homogeneous time-resolved fluorescence (HTRF) kinase assay. To be noted: CDK2/CCNE. The method, boiled down:
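An HTRF format measures CDK2/CCNE1 (3 nM) phosphorylating a 4E-BP1 Thr37/46 peptide at high (1 mM) ATP. Reactions run one hour at 23 °C, then EDTA-quenched and probed with Eu-labelled phospho-specific antibody.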

The mark [5] stands for this setting: >250 nM, read-out: CDK6/CCND IC50, >250 nM.
The mark [6] stands for this setting: >250 nM, read-out: CDK4/CCND IC50, >250 nM.
The mark [7] stands for this setting: 25-250 nM, read-out: CDK2/CCNE IC50, 25-250 nM.
Setting [8] is: 25-250 nM, read-out: CDK6/CCND IC50, 25-250 nM.
Where [9] appears, read: 25-250 nM, read-out: CDK4/CCND IC50, 25-250 nM.
Where [10] appears, read: <25 nM, read-out: CDK2/CCNE IC50, <25 nM.

Sequence of CDK6/CCND1 (Q00534 whole entry): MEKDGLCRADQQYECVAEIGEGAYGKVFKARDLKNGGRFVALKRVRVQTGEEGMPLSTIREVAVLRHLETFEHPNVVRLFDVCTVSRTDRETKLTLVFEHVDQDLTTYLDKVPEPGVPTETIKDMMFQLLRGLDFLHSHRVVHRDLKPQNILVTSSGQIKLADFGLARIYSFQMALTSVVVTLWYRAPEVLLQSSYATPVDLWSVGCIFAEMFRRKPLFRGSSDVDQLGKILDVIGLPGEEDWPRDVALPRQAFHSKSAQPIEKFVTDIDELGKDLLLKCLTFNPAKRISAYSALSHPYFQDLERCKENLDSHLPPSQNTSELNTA
Sequence of CDK6/CCND1 (P24385 whole entry partner): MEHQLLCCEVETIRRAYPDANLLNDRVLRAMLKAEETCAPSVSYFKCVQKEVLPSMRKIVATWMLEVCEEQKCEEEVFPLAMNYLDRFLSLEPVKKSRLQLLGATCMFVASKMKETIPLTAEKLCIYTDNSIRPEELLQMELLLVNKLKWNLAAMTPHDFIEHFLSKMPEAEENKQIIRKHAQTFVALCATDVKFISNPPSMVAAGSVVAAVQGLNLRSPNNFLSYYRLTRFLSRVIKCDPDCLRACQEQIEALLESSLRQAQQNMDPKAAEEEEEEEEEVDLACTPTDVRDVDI
Sequence of CDK4/CCND3 (P11802 whole entry): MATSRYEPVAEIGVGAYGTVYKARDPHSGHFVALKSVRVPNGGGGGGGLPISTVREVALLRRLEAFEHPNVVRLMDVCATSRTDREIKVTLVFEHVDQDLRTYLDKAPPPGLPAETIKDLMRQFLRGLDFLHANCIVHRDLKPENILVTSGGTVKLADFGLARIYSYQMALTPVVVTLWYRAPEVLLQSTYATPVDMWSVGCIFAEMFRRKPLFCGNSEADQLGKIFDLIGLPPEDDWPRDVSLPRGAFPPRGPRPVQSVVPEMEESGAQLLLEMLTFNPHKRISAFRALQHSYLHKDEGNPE
Sequence of CDK4/CCND3 (P30281 whole entry partner): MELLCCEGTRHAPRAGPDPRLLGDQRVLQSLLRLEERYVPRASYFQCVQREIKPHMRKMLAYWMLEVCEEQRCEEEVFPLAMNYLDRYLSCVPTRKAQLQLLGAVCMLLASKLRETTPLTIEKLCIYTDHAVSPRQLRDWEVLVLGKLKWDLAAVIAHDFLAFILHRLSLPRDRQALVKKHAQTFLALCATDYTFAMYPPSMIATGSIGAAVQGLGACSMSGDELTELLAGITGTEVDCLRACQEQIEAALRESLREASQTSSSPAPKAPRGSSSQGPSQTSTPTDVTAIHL
Sequence of CDK1/CCNB1 (P06493 whole entry): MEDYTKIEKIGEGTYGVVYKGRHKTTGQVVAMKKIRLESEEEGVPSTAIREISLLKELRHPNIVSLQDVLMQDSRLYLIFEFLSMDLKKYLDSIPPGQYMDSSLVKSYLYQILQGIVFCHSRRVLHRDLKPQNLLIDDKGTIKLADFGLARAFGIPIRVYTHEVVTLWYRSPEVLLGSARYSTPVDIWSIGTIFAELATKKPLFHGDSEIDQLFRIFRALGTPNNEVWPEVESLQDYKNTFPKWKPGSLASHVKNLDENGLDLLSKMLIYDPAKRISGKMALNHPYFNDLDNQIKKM
Sequence of CDK1/CCNB1 (P14635 whole entry partner): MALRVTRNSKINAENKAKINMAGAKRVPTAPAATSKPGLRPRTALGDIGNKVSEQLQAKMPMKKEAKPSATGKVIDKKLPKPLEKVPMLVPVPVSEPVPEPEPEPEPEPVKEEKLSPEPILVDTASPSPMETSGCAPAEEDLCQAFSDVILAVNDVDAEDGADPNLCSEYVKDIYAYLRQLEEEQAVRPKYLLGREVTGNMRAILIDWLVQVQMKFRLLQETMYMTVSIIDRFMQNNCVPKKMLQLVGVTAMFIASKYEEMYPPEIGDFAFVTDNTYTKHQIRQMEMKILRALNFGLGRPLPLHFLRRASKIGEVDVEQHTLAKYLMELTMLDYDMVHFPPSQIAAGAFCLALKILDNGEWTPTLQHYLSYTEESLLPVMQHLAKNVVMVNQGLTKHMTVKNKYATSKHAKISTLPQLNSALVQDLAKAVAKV

On to `Cc1c(-c2nccc3cnc(Nc4ccc(S(=O)(=O)Nc5ncc(C(F)(F)F)cn5)cc4)cc23)ccc2c1cnn2CC(C)(C)O` [Ex 894, 4-((5-(1-(2-hydroxy-2-methylpropyl)-4-methyl-1H-indazol-5-yl)-2,6-naphthyridin-3-yl)amino)-N-(5-(trifluoromethyl)pyrimidin-2-yl)benzenesulfonamide], for which the pIC50 in assay [1] (setting [5]) is less than 6.60; in assay [2], less than 6.60; in assay [3] (setting [6]), less than 6.60; in assay [4] (setting [7]) it was 6.60 to 7.60.

For the compound `Cc1c(-c2nccc3cnc(Nc4ccc(S(=O)(=O)Nc5ncc(Cl)cn5)cc4)cc23)ccc2c1cnn2CC(C)(C)O` [Ex 895, N-(5-chloropyrimidin-2-yl)-4-((5-(1-(2-hydroxy-2-methylpropyl)-4-methyl-1H-indazol-5-yl)-2,6-naphthyridin-3-yl)amino)benzenesulfonamide], the pIC50 in assay [1] (setting [5]) is less than 6.60; in assay [2], less than 6.60; in assay [3] (setting [6]), less than 6.60; in assay [4] (setting [7]), 6.60 to 7.60.

On to `Cc1cnc(NS(=O)(=O)c2ccc(Nc3cc4c(-c5ccc6c(cnn6CC(C)(C)O)c5C)nccc4cn3)cc2)nc1` [Ex 896, 4-((5-(1-(2-hydroxy-2-methylpropyl)-4-methyl-1H-indazol-5-yl)-2,6-naphthyridin-3-yl)amino)-N-(5-methylpyrimidin-2-yl)benzenesulfonamide], for which the pIC50 is 6.60 to 7.60 in assay [1] (setting [8]), less than 6.60 in assay [2], 6.60 to 7.60 in assay [3] (setting [9]) and more than 7.60 in assay [4] (setting [10]).

`COc1ccnc(NS(=O)(=O)c2ccc(Nc3cc4c(-c5ccc6c(cnn6CC(C)(C)O)c5C)nccc4cn3)cc2)n1` [Ex 897, 4-((5-(1-(2-hydroxy-2-methylpropyl)-4-methyl-1H-indazol-5-yl)-2,6-naphthyridin-3-yl)amino)-N-(4-methoxypyrimidin-2-yl)benzenesulfonamide]: the pIC50 is 6.60 to 7.60 in assay [1] (setting [8]), less than 6.60 in assay [2], less than 6.60 in assay [3] (setting [6]) and more than 7.60 in assay [4] (setting [10]).

As for `COc1cc(OC)nc(NS(=O)(=O)c2ccc(Nc3cc4c(-c5ccc6c(cnn6CC(C)(C)O)c5C)nccc4cn3)cc2)n1` [Ex 898, N-(4,6-dimethoxypyrimidin-2-yl)-4-((5-(1-(2-hydroxy-2-methylpropyl)-4-methyl-1H-indazol-5-yl)-2,6-naphthyridin-3-yl)amino)benzenesulfonamide], the pIC50 in assay [1] (setting [5]) is less than 6.60; in assay [2] it was less than 6.60; in assay [3] (setting [6]), less than 6.60; in assay [4] (setting [10]) it was more than 7.60.

`Cc1cc(C#Cc2nccc3cnc(Nc4ccc(S(C)(=O)=O)cc4)cc23)sn1` [Ex 899, 5-((3-methylisothiazol-5-yl)ethynyl)-N-(4-(methylsulfonyl)phenyl)-2,6-naphthyridin-3-amine]: the pIC50 in assay [1] (setting [5]) is less than 6.60; in assay [2], less than 6.60; in assay [3] (setting [6]) it was less than 6.60; in assay [4] (setting [7]), 6.60 to 7.60.

For `CS(=O)(=O)c1ccc(Nc2cc3c(C#Cc4ccc(C#N)s4)nccc3cn2)cc1` [Ex 900, 5-((7-((4-(methylsulfonyl)phenyl)amino)-2,6-naphthyridin-1-yl)ethynyl)thiophene-2-carbonitrile], the pIC50 in assay [1] (setting [5]) was less than 6.60; in assay [2], less than 6.60; in assay [3] (setting [6]) it was less than 6.60; in assay [4] (setting [7]) it was 6.60 to 7.60.

With `Cc1cnc(C#Cc2nccc3cnc(Nc4ccc(S(C)(=O)=O)cc4)cc23)[nH]1` [Ex 901, 5-((5-methyl-1H-imidazol-2-yl)ethynyl)-N-(4-(methylsulfonyl)phenyl)-2,6-naphthyridin-3-amine], the pIC50 in assay [1] (setting [5]) is less than 6.60; in assay [2], less than 6.60; in assay [3] (setting [6]), less than 6.60; in assay [4] (setting [7]) it was 6.60 to 7.60.

In the case of `CC#Cc1nccc2cnc(Nc3ccc(S(=O)(=O)Nc4nccc(C)n4)cc3)cc12` [Ex 905, N-(4-methylpyrimidin-2-yl)-4-((5-(prop-1-yn-1-yl)-2,6-naphthyridin-3-yl)amino)benzenesulfonamide], the pIC50 was less than 6.60 in assay [1] (setting [5]), less than 6.60 in assay [2], less than 6.60 in assay [3] (setting [6]) and 6.60 to 7.60 in assay [4] (setting [7]).

Regarding `COc1cnc(NS(=O)(=O)c2ccc(Nc3cc4c(-c5ccc6c(cnn6CC(C)(C)O)c5C)nccc4cn3)cc2)nc1` [Ex 906, 4-((5-(1-(2-hydroxy-2-methylpropyl)-4-methyl-1H-indazol-5-yl)-2,6-naphthyridin-3-yl)amino)-N-(5-methoxypyrimidin-2-yl)benzenesulfonamide], the pIC50 in assay [1] (setting [5]) was less than 6.60; in assay [2], less than 6.60; in assay [3] (setting [6]) it was less than 6.60; in assay [4] (setting [10]), more than 7.60.

Consider `Cc1c(-c2nccc3cnc(Nc4ccc(S(=O)(=O)Nc5nccc(C(F)(F)F)n5)cc4)cc23)ccc2c1cnn2CC(C)(C)O` [Ex 907, 4-((5-(1-(2-hydroxy-2-methylpropyl)-4-methyl-1H-indazol-5-yl)-2,6-naphthyridin-3-yl)amino)-N-(4-(trifluoromethyl)pyrimidin-2-yl)benzenesulfonamide], for which the pIC50 was less than 6.60 in assay [1] (setting [5]), less than 6.60 in assay [2], less than 6.60 in assay [3] (setting [6]) and more than 7.60 in assay [4] (setting [10]).

For `Cc1ccnc(NS(=O)(=O)c2ccc(Nc3cc4c(-c5ccc6c(cnn6CC(C)(C)O)c5C)nccc4cn3)cc2)n1` [Ex 908, 4-((5-(1-(2-hydroxy-2-methylpropyl)-4-methyl-1H-indazol-5-yl)-2,6-naphthyridin-3-yl)amino)-N-(4-methylpyrimidin-2-yl)benzenesulfonamide], the pIC50 in assay [1] (setting [8]) was 6.60 to 7.60; in assay [2], less than 6.60; in assay [3] (setting [9]), 6.60 to 7.60; in assay [4] (setting [10]), more than 7.60.

Turning to `COc1nccc(C#Cc2nccc3cnc(Nc4ccc(S(C)(=O)=O)cc4)cc23)c1C` [Ex 909, 5-((2-methoxy-3-methylpyridin-4-yl)ethynyl)-N-(4-(methylsulfonyl)phenyl)-2,6-naphthyridin-3-amine], the pIC50 was less than 6.60 in assay [1] (setting [5]), less than 6.60 in assay [2], less than 6.60 in assay [3] (setting [6]) and 6.60 to 7.60 in assay [4] (setting [7]).

As to `COc1cc(C)c(C#Cc2nccc3cnc(Nc4ccc(S(C)(=O)=O)cc4)cc23)cn1` [Ex 910, 5-((6-methoxy-4-methylpyridin-3-yl)ethynyl)-N-(4-(methylsulfonyl)phenyl)-2,6-naphthyridin-3-amine], the pIC50 was less than 6.60 in assay [1] (setting [5]), less than 6.60 in assay [2], less than 6.60 in assay [3] (setting [6]) and 6.60 to 7.60 in assay [4] (setting [7]).

For `CS(=O)(=O)c1ccc(Nc2cc3c(C#Cc4cc(O)cc(F)c4)nccc3cn2)cc1` [Ex 911, 3-fluoro-5-((7-((4-(methylsulfonyl)phenyl)amino)-2,6-naphthyridin-1-yl)ethynyl)phenol], the pIC50 in assay [1] (setting [5]) was less than 6.60; in assay [2], less than 6.60; in assay [3] (setting [6]) it was less than 6.60; in assay [4] (setting [7]), 6.60 to 7.60.

Consider `COc1cc(C#Cc2nccc3cnc(Nc4ccc(S(C)(=O)=O)cc4)cc23)ccc1F` [Ex 912, 5-((4-fluoro-3-methoxyphenyl)ethynyl)-N-(4-(methylsulfonyl)phenyl)-2,6-naphthyridin-3-amine], for which the pIC50 in assay [1] (setting [5]) is less than 6.60; in assay [2] it was less than 6.60; in assay [3] (setting [6]) it was less than 6.60; in assay [4] (>250 nM, read-out: CDK2/CCNE IC50, >250 nM), less than 6.60.
